# Where a name gives a salt, the structure may show the parent alone.
# Key:
# Human FIIa = biological target: T1, Human FIIa (Homo sapiens, UniProt P00734); experiment: Determination of anti-factor IIa (FIIa) activity, synthetic substrate S-2238; type: biochemical; settings: S-2238, 37° C., pH 8.4, read-out: Experimental Example 2: anti-FIIa activity, IC50
# T1 construct: purchased Sigma
# normal plasma [1] = experiment: Determination of prothrombin time (PT), mouse plasma; type: biochemical
# Protocol: (§1) Determination of prothrombin time (PT)
# (§2) Blood was taken from mouse, rat, crab-eating monkey and healthy human volunteers, and citric acid was added. The blood was centrifuged at 4° C. and 2000 G for 15 min to obtain normal plasma of various animals.
# (§3) Purified water (5 μl) containing various concentrations of test compound was added to plasma (45 μl) and the resultant mixtures were used as samples. […] (Baxter) was prepared and heated at […] for 5 min, and a sample (50 μl) was admixed with the thrombin reagent (100 μl). The time (PT) until precipitation of fibrin was measured. The drug concentration that doubled the PT hours of the drug untreated group was calculated and taken as CT2.
# normal plasma [2] = experiment: Determination of prothrombin time (PT), rat plasma; type: biochemical
# Protocol: as §1, §2, §3
# normal plasma [3] = experiment: Determination of prothrombin time (PT), human plasma; type: biochemical
# Protocol: as §1, §2, §3
# Human FXa [4] = biological target: T2, Human FXa (Homo sapiens, UniProt P00742); experiment: Intravenous administration test in mouse, human FXa inhibitory activity in serum; type: in vivo; settings: ICR mice, i.v., mean ± S.D., n = 3
# T2 construct: Human FXa [Enzyme research Laboratories (USA)] enzyme; purchased Enzyme Research Laboratories (USA)
# Protocol: Intravenous Administration Tests in Mouse
# A test compound dissolved in physiological saline was intravenously administered to ICR mice (body weight 20-30 g, 4-6 weeks old) and the activity of the test compound was evaluated based on the human FXa inhibitory activity in serum as an indicator.
# At 10, 30, 60, 120 min from the intravenous administration, blood was taken from the eye ground using a hematocrit tube. The blood was centrifuged at 9000 G for 5 min and the obtained serum was used for the determination.
# (§4) Human FXa inhibitory activity was measured as follows. Human FXa [Enzyme research Laboratories (USA)] enzyme (40 μl, 0.5 U/ml) and a 4-fold diluted plasma sample (40 μl) were incubated in 0.1M Tris-0.2M NaCl buffer (pH 8.4) (40 μl) at 37° C. for 10 min. A synthetic substrate S-2222 (Daiichi Pure Chemical (Tokyo, Japan), 40 μl) adjusted to 0.8 mM was added and the mixture was incubated at 37° C. for 5 min. The reaction was stopped by addition of 60% acetic acid (40 μl) and absorbance at 405 nm was measured by Model 3550 (BIO-RAD). For the control, serum or plasma obtained prior to blood sampling was used for measurement. Human FXa inhibitory activity was calculated as inhibition percentage (%) against control.
# Human FXa [5] = biological target: T2, Human FXa; experiment: Intravenous administration test in monkey, human FXa inhibitory activity in plasma; type: in vivo; settings: crab-eating monkey, i.v., mean ± S.D., n = 3
# Protocol: as §4
# Intravenous Administration Tests in Monkey
# A test compound dissolved in physiological saline was intravenously administered to monkey (crab-eating monkey, body weight 3.5-4.5 kg) and the activity of the test compound was evaluated based on the human FXa inhibitory activity in plasma as an indicator.
# (§5) At 10, 30, 60, 120, 180 min from the intravenous administration, blood was taken from the saphenous vein with the passage of time and the blood was centrifuged at 2000 G for 10 min. The obtained citric acid plasma was used for the determination. Human FXa inhibitory activity was determined in the same manner as in the test using mouse.
# Human FXa [6] = biological target: T2, Human FXa; experiment: Oral administration test in mouse, human FXa inhibitory activity in serum; type: in vivo; settings: ICR mice, mean ± S.D., n = 3
# Protocol: as §4
# Oral Administration Tests in Mouse
# A test compound dissolved in distilled water was orally administered to ICR mice (body weight 20-30 g, 4-6 weeks old) and the activity of the test compound was evaluated based on the human FXa inhibitory activity in serum as an indicator.
# At 30, 60, 120, 180 min from the oral administration, blood was taken from the eye ground using a hematocrit tube. The blood was centrifuged at 9000 G for 5 min and the obtained serum was used for the determination. Human FXa inhibitory activity was determined in the same manner as in the test by intravenous administration.
# Human FXa [7] = biological target: T2, Human FXa; experiment: Oral administration test in monkey, human FXa inhibitory activity in plasma; type: in vivo; settings: crab-eating monkey, mean ± S.D., n = 3
# Protocol: as §4
# Oral Administration Tests in Monkey
# A test compound dissolved in distilled water was orally administered to monkey (carb-eating monkey, body weight 3.5-4.5 kg) and the activity of the test compound was evaluated based on the human FXa inhibitory activity in plasma as an indicator.
# as §5, with “At” for “At 10,”, “240, 480” for “180”, “oral” for “intravenous”, “by intravenous administration.” for “using mouse.”
# [8] = tested on: decrease of platelets and formation of FDP by thromboplastin; experiment: Blood coagulation model in rat (thromboplastin); type: in vivo; settings: i.v. 10 min before thromboplastin, mean ± S.D, n = 3; for PLT value: counted 10 min later; for FDP value: measured 30 min later
# Protocol: Blood Coagulation Model in Rat
# Intravenous administration of thromboplastin (Sigma) to rat promotes coagulation system, which in turn decreases platelets and increases fibrin degradation product (FDP). Thus, the test compound was intravenously administered 10 min before thromboplastin administration and the inhibitory effects of the test compound on the decrease of platelets and the formation of FDP by thromboplastin were studied. The thromboplastin administered had such concentration as to form clots within 20 seconds from the addition of one plasma dose to two thromboplastin doses and was administered in 1 ml/kg dose. Platelets were counted (PLT value) 10 min later on a blood cell counter sysmex F-800 [Dade International Inc. (USA)], and FDP was measured 30 min later using FDP latex reagent for serum [Teikoku Hormone Mfg. Co., Ltd. (Tokyo, Japan)]. In every Example, the PLT value of the thromboplastin untreated group was (106±13)×10^4 and the FDP value of this group was 0±0 μg/ml.
# T2 sequence (P00742 235-488 limits assumed): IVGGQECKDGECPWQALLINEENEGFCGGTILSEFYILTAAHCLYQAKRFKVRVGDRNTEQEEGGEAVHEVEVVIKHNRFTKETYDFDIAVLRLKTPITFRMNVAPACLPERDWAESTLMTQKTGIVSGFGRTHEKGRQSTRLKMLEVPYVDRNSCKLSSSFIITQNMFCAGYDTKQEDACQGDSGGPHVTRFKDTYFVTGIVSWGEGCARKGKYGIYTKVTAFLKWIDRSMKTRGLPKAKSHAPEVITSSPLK
# T2 sequence (P00742 41-179 limits assumed): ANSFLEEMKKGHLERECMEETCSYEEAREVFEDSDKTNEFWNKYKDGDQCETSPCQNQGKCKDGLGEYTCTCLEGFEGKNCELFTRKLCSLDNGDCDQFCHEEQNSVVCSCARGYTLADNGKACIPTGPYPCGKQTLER
smiles,measurement,setting,value
"CC(=N)N1CCC(Oc2ccc(N(Cc3nc4cc(C(=N)N)ccc4n3CC(=O)N[C@@H](C)c3ccccc3)C(=O)c3ccc(C(=O)O)cc3)cc2)CC1 [Example 17, (S)-4-[N-[5-Amidino-1-(1-phenylethylcarbamoylmethyl)benzimidazole-2-ylmethyl]-N-[4-(1-acetimidoylpiperidin-4-yloxy)phenyl]carbamoyl]benzoic Acid Dihydrochloride]",IC50,Human FIIa,> 10 µM
same,CT2 (drug concentration that doubled the PT),normal plasma [1],2 µM
same,CT2 (drug concentration that doubled the PT),normal plasma [2],2 µM
same,CT2 (drug concentration that doubled the PT),normal plasma [3],0.5 µM
same,inhibition at 0.1 mg/kg,Human FXa [4]; 10 minutes,31 ± 3%
same,inhibition at 0.1 mg/kg,Human FXa [4]; 30 minutes,10 ± 3%
same,inhibition at 0.1 mg/kg,Human FXa [4]; 60 minutes,0%
same,inhibition at 0.1 mg/kg,Human FXa [4]; 120 minutes,0%
same,inhibition at 0.3 mg/kg,Human FXa [4]; 10 minutes,65 ± 1%
same,inhibition at 0.3 mg/kg,Human FXa [4]; 30 minutes,38 ± 5%
same,inhibition at 0.3 mg/kg,Human FXa [4]; 60 minutes,16 ± 3%
same,inhibition at 0.3 mg/kg,Human FXa [4]; 120 minutes,8 ± 4%
same,inhibition at 1 mg/kg,Human FXa [4]; 10 minutes,70 ± 1%
same,inhibition at 1 mg/kg,Human FXa [4]; 30 minutes,69 ± 2%
same,inhibition at 1 mg/kg,Human FXa [4]; 60 minutes,41 ± 10%
same,inhibition at 1 mg/kg,Human FXa [4]; 120 minutes,1 ± 3%
same,inhibition at 1 mg/kg,Human FXa [5]; 10 minutes,90 ± 6%
same,inhibition at 1 mg/kg,Human FXa [5]; 30 minutes,90 ± 1%
same,inhibition at 1 mg/kg,Human FXa [5]; 60 minutes,86 ± 2%
same,inhibition at 1 mg/kg,Human FXa [5]; 120 minutes,77 ± 6%
same,inhibition at 1 mg/kg,Human FXa [5]; 180 minutes,65 ± 12%
same,inhibition at 10 mg/kg,Human FXa [6]; 30 minutes,46 ± 3%
same,inhibition at 10 mg/kg,Human FXa [6]; 60 minutes,34 ± 7%
same,inhibition at 10 mg/kg,Human FXa [6]; 120 minutes,20%
same,inhibition at 10 mg/kg,Human FXa [6]; 180 minutes,21 ± 5%
same,inhibition at 10 mg/kg,Human FXa [7]; 30 minutes,62 ± 53%
same,inhibition at 10 mg/kg,Human FXa [7]; 60 minutes,62 ± 51%
same,inhibition at 10 mg/kg,Human FXa [7]; 120 minutes,83 ± 13%
same,inhibition at 10 mg/kg,Human FXa [7]; 240 minutes,68 ± 16%
same,inhibition at 10 mg/kg,Human FXa [7]; 480 minutes,27 ± 10%
same,PLT value,[8]; dose 0.01 mg/kg,41 ± 13 ×10^4 blood platelet/μl
same,FDP value,[8]; dose 0.01 mg/kg,6 ± 3 µg/mL
same,PLT value,[8]; dose 0.03 mg/kg,92 ± 11 ×10^4 blood platelet/μl
same,FDP value,[8]; dose 0.03 mg/kg,1 ± 1 µg/mL
same,PLT value,[8]; dose 1 mg/kg,108 ± 6 ×10^4 blood platelet/μl
same,FDP value,[8]; dose 1 mg/kg,0 ± 0 µg/mL

# From patent publication US6562828B1, “Amidine compounds” (Japan Tobacco Inc., priority 1998, dated 2003)
